Here are results for eight compounds from ChEMBL document CHEMBL2321677, “Cyclic analogs of galanin and neuropeptide Y by hydrocarbon stapling” (Bioorg Med Chem, 2013).

Activity calls are given as the source filed them. No cut-off for these calls is given here. Bridge positions count the residues as written; N and C are the ends. Square brackets hold non-standard residues; d marks the D form. Peptide text beside a SMILES is read from it. * marks the point of attachment. X1 = CC(=O)N(C(=O)CCCCCN)[C@@H](C)C(=O)*; S5 = C=CCCC[C@](C)(N)C(=O)O; Sar = CNCC(=O)O

In series [1] the test system is Mus musculus. As to the kind of experiment: Anticonvulsant activity in CF1 albino mouse assessed as protection against 6Hz partial psychomotor seizure at 1 nmol/5 ul, icv after 0.5 hrs relative to control. Type of series: functional, organism-based.
Series [2] can be described thus: Half life in rat serum by HPLC analysis. It is filed as ADME, cell-free.
The next series deals with T1, Galanin receptor type 1 (Homo sapiens, UniProt P47211).
T1 sequence (P47211 whole entry): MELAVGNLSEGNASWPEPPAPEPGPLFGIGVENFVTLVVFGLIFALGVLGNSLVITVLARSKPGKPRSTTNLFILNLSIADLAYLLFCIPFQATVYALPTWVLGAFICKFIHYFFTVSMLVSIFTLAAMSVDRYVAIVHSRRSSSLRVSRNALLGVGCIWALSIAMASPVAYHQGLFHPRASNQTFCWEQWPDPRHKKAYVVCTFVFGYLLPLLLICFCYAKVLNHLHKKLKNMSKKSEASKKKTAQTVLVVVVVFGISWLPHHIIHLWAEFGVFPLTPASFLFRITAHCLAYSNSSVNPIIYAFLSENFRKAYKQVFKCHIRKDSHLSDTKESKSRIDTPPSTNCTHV
As to the kind of experiment: Displacement of euporium-galanin from human GalR1 after 1.5 hrs by DELFIA assay.

In series [3] the test system is Mus musculus. Briefly: Neurotoxicity against CF1 albino mouse assessed as motor impairment at 0.1 nmol/5 ul, icv after 0.5 hrs by rotarod test. Particulars: in vivo, icv_or_intrathecal. It is filed as toxicity, organism-based.
Series [4] can be described thus: n-octanol-water partition coefficient, log D of the compound by HPLC capacity factor method. It is filed as physicochemical.
A further series deals with T2, Galanin receptor type 2 (Homo sapiens, UniProt O43603).
T2 sequence (O43603 whole entry): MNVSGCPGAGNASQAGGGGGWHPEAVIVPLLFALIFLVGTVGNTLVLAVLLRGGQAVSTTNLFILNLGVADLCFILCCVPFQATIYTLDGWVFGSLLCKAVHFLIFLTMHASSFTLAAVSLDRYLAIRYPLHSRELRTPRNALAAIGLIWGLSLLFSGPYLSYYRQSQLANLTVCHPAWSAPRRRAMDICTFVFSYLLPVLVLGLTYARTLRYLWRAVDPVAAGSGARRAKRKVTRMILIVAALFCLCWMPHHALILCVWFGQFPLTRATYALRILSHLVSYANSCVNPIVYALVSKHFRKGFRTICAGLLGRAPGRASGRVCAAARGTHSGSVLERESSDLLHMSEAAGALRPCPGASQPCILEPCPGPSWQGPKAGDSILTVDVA
Briefly: Displacement of euporium-galanin from human GalR2 after 1.5 hrs by DELFIA assay.

Series [5] is described as follows: n-octanol-water partition coefficient, log D of the compound by shake-flask method. It is filed as physicochemical.
For series [6], the target named is T3, Neuropeptide Y receptor type 2 (Homo sapiens, UniProt P49146).
T3 sequence (P49146 whole entry): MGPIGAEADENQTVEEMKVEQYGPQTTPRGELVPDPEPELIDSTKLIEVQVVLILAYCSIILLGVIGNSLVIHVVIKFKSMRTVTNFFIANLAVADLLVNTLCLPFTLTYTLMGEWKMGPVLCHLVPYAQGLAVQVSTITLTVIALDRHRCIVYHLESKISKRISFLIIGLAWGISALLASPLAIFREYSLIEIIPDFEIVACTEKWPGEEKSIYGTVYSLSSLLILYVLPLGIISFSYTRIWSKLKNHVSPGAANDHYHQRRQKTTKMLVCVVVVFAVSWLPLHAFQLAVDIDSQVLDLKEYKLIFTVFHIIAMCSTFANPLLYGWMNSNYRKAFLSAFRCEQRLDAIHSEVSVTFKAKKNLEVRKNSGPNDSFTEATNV
Briefly: Agonist activity at human NPY2R expressed inj CHOK1 cells assessed as inhibition of forskolin-stimulated cAMP production after 30 mins by luminescence assay. It is filed as functional, cell-based, CHO-K1. Background: Changes in cAMP serve as a functional read-out for many G protein-coupled receptors.

Consider `CC[C@H](C)[C@H](NC(=O)[C@H](Cc1ccc(O)cc1)NC(=O)[C@H](Cc1cnc[nH]1)NC(=O)[C@H](CCCNC(=N)N)NC(=O)[C@H](C)N(C(=O)CCCCCN)C(=O)[C@]1(C)CCC/C=C\CCC[C@](C)(NC(=O)[C@H](Cc2ccc(O)cc2)NC(C)=O)C(=O)N[C@@H](CCCCN)C(=O)N[C@@H](CCCCN)C(=O)N[C@@H](CCCCN)C(=O)N1)C(=O)N[C@@H](CC(N)=O)C(=O)N[C@@H](CC(C)C)C(=O)N[C@@H](CC(C)C)C(=O)N[C@H](C(=O)N[C@@H](CCCNC(=N)N)C(=O)N[C@@H](CCC(N)=O)C(=O)N[C@@H](CCCNC(=N)N)C(=O)N[C@@H](Cc1ccc(O)cc1)C(N)=O)[C@@H](C)O`, for which the outcome in the series on Mus musculus [1] was Active.

`CNCC(=O)N[C@@H](Cc1c[nH]c2ccccc12)C(=O)N[C@H](C(=O)N[C@@H](CC(C)C)C(=O)N[C@@H](CC(N)=O)C(=O)N[C@@H](CO)C(=O)N[C@@]1(C)CCC/C=C/CCC[C@@](C)(C(=O)NCC(=O)N2CCC[C@H]2C(=O)N[C@@H](CCCCN)C(=O)N[C@@H](CCCCN)C(=O)N[C@@H](CCCCN)C(=O)N[C@@H](CCCCN)C(N)=O)NC(=O)[C@H](CC(C)C)NC(=O)[C@H](Cc2ccc(O)cc2)NC(=O)CNC1=O)[C@@H](C)O` (H-[Sar]WTLNS[S5]GYL[S5]GPKKKK-NH2; staple (E) 7-11) had a half-life in series [2] of 384 min. In addition, the results for the Ki on Galanin receptor type 1 and at Galanin receptor type 2 were 37.5 nM and 119 nM, respectively. Also, the Activity entry in the series with Mus musculus [3] was “Non-toxic”. In series [4], this compound yielded a chromatographic logD of 0.71. In the series on Mus musculus [1], the result was Active.

As for `CNCC(=O)N[C@@H](Cc1c[nH]c2ccccc12)C(=O)N[C@H](C(=O)N[C@@H](CC(C)C)C(=O)N[C@@H](CC(N)=O)C(=O)N[C@@H](CO)C(=O)N[C@@H](C)C(=O)NCC(=O)N[C@@H](Cc1ccc(O)cc1)C(=O)N[C@@H](CC(C)C)C(=O)N[C@@H](CC(C)C)C(=O)NCC(=O)N1CCC[C@H]1C(=O)N[C@@]1(C)CCC/C=C\CCC[C@@](C)(C(=O)N[C@@H](CCCCN)C(N)=O)NC(=O)[C@H](CCCCN)NC(=O)[C@H](CCCCN)NC(=O)[C@H](CCCCN)NC1=O)[C@@H](C)O` (H-[Sar]WTLNSAGYLLGP[S5]KKK[S5]K-NH2; staple (Z) 14-18), the half-life in series [2] is 942 min. Besides, the results for the Ki on Galanin receptor type 1 and at Galanin receptor type 2 were 3.8 nM and 15.6 nM, respectively. Moreover, the Activity result with Mus musculus [3] is “Non-toxic”. Further, the chromatographic logD in series [4] came out at 0.78. For the same compound, in the series on Mus musculus [1], the outcome was Active.

In series [2], `CC[C@H](C)[C@H](NC(=O)[C@H](Cc1ccc(O)cc1)NC(=O)[C@H](Cc1cnc[nH]1)NC(=O)[C@H](CCCNC(=N)N)NC(=O)[C@H](C)N(C(C)=O)C(=O)CCCCCN)C(=O)N[C@@H](CC(N)=O)C(=O)N[C@@H](CC(C)C)C(=O)N[C@H](C(=O)N[C@H](C(=O)N[C@@H](CCCNC(=N)N)C(=O)N[C@@H](CCC(N)=O)C(=O)N[C@@H](CCCNC(=N)N)C(=O)N[C@@H](Cc1ccc(O)cc1)C(N)=O)[C@@H](C)O)[C@@H](C)CC` (X1-RHYINLITRQRY-NH2) showed a half-life of 34.2 min. In series [5], this compound came in with a logD of -2.13.

Consider `CC(=O)N[C@@H](C)C(=O)N[C@@H](CCCNC(=N)N)C(=O)N[C@@H](Cc1cnc[nH]1)C(=O)N[C@@H](Cc1ccc(O)cc1)C(=O)N[C@@]1(C)CCC/C=C/CCC[C@@](C)(C(=O)N[C@@H](CCCNC(=N)N)C(=O)N[C@@H](CCC(N)=O)C(=O)N[C@@H](CCCNC(=N)N)C(=O)N[C@@H](Cc2ccc(O)cc2)C(N)=O)NC(=O)[C@H](CC(C)C)NC(=O)[C@H](CC(C)C)NC(=O)[C@H](CC(N)=O)NC1=O` (Ac-ARHY[S5]NLL[S5]RQRY-NH2; staple (E) 5-9), for which the half-life in series [2] is 162 min. In the series on Mus musculus [3], the Activity result is listed as “Toxic”. This compound came in with a logD in series [5] of -0.71. For the same compound, the outcome in the series on Mus musculus [1] was Active.

With `CC(C)C[C@H](NC(=O)[C@H](CC(C)C)NC(=O)[C@H](Cc1ccc(O)cc1)NC(=O)CNC(=O)[C@H](C)NC(=O)[C@H](CO)NC(=O)[C@H](CC(N)=O)NC(=O)[C@H](CC(C)C)NC(=O)[C@@H](NC(=O)[C@H](Cc1c[nH]c2ccccc12)NC(=O)CN)[C@@H](C)O)C(=O)NCC(=O)N1CCC[C@H]1C(=O)N[C@@H](Cc1cnc[nH]1)C(=O)N[C@@H](C)C(=O)N[C@H](C(N)=O)C(C)C`, the half-life in series [2] is 7.8 min. Further, the Activity entry in the series on Mus musculus [3] is “Non-toxic”. Besides, in the series with Mus musculus [1], the result was inactive.

Compound `CC[C@H](C)[C@H](NC(=O)[C@H](Cc1ccc(O)cc1)NC(=O)[C@H](Cc1cnc[nH]1)NC(=O)[C@H](CCCN=C(N)N)NC(=O)[C@H](C)N(C(=O)CCCCCN)C(=O)[C@]1(C)CCC/C=C\CCC[C@](C)(NC(=O)[C@H](Cc2ccc(O)cc2)NC(C)=O)C(=O)N[C@@H](CCCCN)C(=O)N[C@@H](CCCCN)C(=O)N[C@@H](CCCCN)C(=O)N1)C(=O)N[C@@H](CC(N)=O)C(=O)N[C@@H](CC(C)C)C(=O)N[C@@H](CC(C)C)C(=O)N[C@H](C(=O)N[C@@H](CCCN=C(N)N)C(=O)N[C@@H](CCC(N)=O)C(=O)N[C@@H](CCCN=C(N)N)C(=O)N[C@@H](Cc1ccc(O)cc1)C(N)=O)[C@@H](C)O` gave a half-life in series [2] of 108 min. Also, the Activity entry with Mus musculus [3] is “Non-toxic”. This compound also came in with a logD in series [5] of 0.08. The EC50 in series [6] came to 403 nM.

For `CC[C@H](C)[C@H](NC(=O)[C@H](Cc1ccc(O)cc1)NC(=O)[C@H](Cc1c[nH]cn1)NC(=O)[C@H](CCCN=C(N)N)NC(=O)[C@H](CC(C)C)NC(=O)[C@H](C)NC(=O)[C@H](CO)NC(=O)[C@H](Cc1ccc(O)cc1)NC(=O)[C@H](Cc1ccc(O)cc1)NC(=O)[C@H](CCCN=C(N)N)NC(=O)[C@H](C)NC(=O)[C@H](CC(C)C)NC(=O)[C@H](CC(=O)O)NC(=O)[C@H](CCC(=O)O)NC(=O)[C@H](C)NC(=O)[C@@H]1CCCN1)C(=O)N[C@@H](CC(N)=O)C(=O)N[C@@H](CC(C)C)C(=O)N[C@H](C(=O)N[C@H](C(=O)N[C@@H](CCCN=C(N)N)C(=O)N[C@@H](CCC(N)=O)C(=O)N[C@@H](CCCN=C(N)N)C(=O)N[C@@H](Cc1ccc(O)cc1)C(=O)O)[C@@H](C)O)[C@@H](C)CC`, the Activity entry with Mus musculus [3] is on record as “Non-toxic”. Moreover, the result with Mus musculus [1] was inactive.

For orientation: half-life means the time in which the quantity being followed falls by half. High values mean slow decline, low ones rapid decline. The Ki is the dissociation constant of the complex between target and ligand, obtained from inhibition or displacement. For orientation: chromatographic logD means a lipophilicity value derived from retention on a column. Lower therefore signals a more hydrophilic compound. A word on the logD: it is the decadic logarithm of the distribution of all forms, ionised or not, between an organic phase and buffer at a given pH. Read a low logD as a more hydrophilic compound. What is called EC50 is the midpoint of the concentration-response curve.
